Numbers after ± are expanded uncertainties.
Test: xn = mol fraction of the nth substance listed
Conditions: 304.21 K, Fluid (supercritical or subcritical phases), Vibrating tube method, x1 = 0.97

With `O=C=O` [carbon dioxide] + CO the mass density (13650 kPa) was 834.12 ± 0.82 kg/m3, the mass density (13675 kPa) was 834.42 ± 0.82 kg/m3 and the mass density (13700 kPa) was 834.66 ± 0.82 kg/m3. For the same compound, the mass density (13725 kPa) was 834.9 ± 0.82 kg/m3, the mass density (13750 kPa) was 835.2 ± 0.82 kg/m3 and the mass density (13775 kPa) was 835.42 ± 0.82 kg/m3. The mass density (13800 kPa) was 835.64 ± 0.82 kg/m3, the mass density (13825 kPa) was 835.86 ± 0.82 kg/m3 and the mass density (13850 kPa) was 836.06 ± 0.82 kg/m3. It also gave a mass density (13875 kPa) of 836.22 ± 0.82 kg/m3, a mass density (13900 kPa) of 836.51 ± 0.82 kg/m3 and a mass density (13925 kPa) of 836.81 ± 0.82 kg/m3. The mass density (13950 kPa) was 837.08 ± 0.82 kg/m3, the mass density (13975 kPa) was 837.35 ± 0.82 kg/m3 and the mass density (14000 kPa) was 837.64 ± 0.82 kg/m3. It also gave a mass density (14025 kPa) of 837.92 ± 0.82 kg/m3, a mass density (14050 kPa) of 838.19 ± 0.82 kg/m3 and a mass density (14075 kPa) of 838.5 ± 0.82 kg/m3. For the same compound, the mass density (14100 kPa) was 838.78 ± 0.82 kg/m3, the mass density (14125 kPa) was 839.03 ± 0.82 kg/m3 and the mass density (14150 kPa) was 839.31 ± 0.82 kg/m3. The mass density (14175 kPa) was 839.62 ± 0.82 kg/m3, the mass density (14200 kPa) was 839.87 ± 0.82 kg/m3 and the mass density (14225 kPa) was 840.12 ± 0.82 kg/m3. For the same compound, the mass density (14250 kPa) was 840.43 ± 0.82 kg/m3, the mass density (14275 kPa) was 840.68 ± 0.82 kg/m3 and the mass density (14300 kPa) was 840.92 ± 0.82 kg/m3. The mass density (14325 kPa) was 841.24 ± 0.82 kg/m3, the mass density (14350 kPa) was 841.49 ± 0.82 kg/m3 and the mass density (14375 kPa) was 841.72 ± 0.82 kg/m3. The mass density (14400 kPa) was 842.04 ± 0.82 kg/m3, the mass density (14425 kPa) was 842.27 ± 0.82 kg/m3 and the mass density (14450 kPa) was 842.52 ± 0.82 kg/m3. For the same compound, the mass density (14475 kPa) was 842.78 ± 0.82 kg/m3, the mass density (14500 kPa) was 843.08 ± 0.82 kg/m3 and the mass density (14525 kPa) was 843.34 ± 0.82 kg/m3. For the same compound, the mass density (14550 kPa) was 843.58 ± 0.82 kg/m3, the mass density (14575 kPa) was 843.9 ± 0.82 kg/m3 and the mass density (14600 kPa) was 844.14 ± 0.82 kg/m3. For the same compound, the mass density (14625 kPa) was 844.38 ± 0.82 kg/m3, the mass density (14650 kPa) was 844.61 ± 0.82 kg/m3 and the mass density (14675 kPa) was 844.86 ± 0.82 kg/m3. It also gave a mass density (14700 kPa) of 845.17 ± 0.82 kg/m3, a mass density (14725 kPa) of 845.44 ± 0.82 kg/m3 and a mass density (14750 kPa) of 845.72 ± 0.82 kg/m3. The mass density (14775 kPa) was 845.96 ± 0.82 kg/m3, the mass density (14800 kPa) was 846.19 ± 0.82 kg/m3 and the mass density (14825 kPa) was 846.5 ± 0.82 kg/m3. For the same compound, the mass density (14850 kPa) was 846.73 ± 0.82 kg/m3, the mass density (14875 kPa) was 846.98 ± 0.82 kg/m3 and the mass density (14900 kPa) was 847.24 ± 0.82 kg/m3. For the same compound, the mass density (14925 kPa) was 847.52 ± 0.82 kg/m3, the mass density (14950 kPa) was 847.71 ± 0.82 kg/m3 and the mass density (14975 kPa) was 848 ± 0.82 kg/m3. It also gave a mass density (15000 kPa) of 848.29 ± 0.82 kg/m3, a mass density (15025 kPa) of 848.51 ± 0.82 kg/m3 and a mass density (15050 kPa) of 848.76 ± 0.82 kg/m3. For the same compound, the mass density (15075 kPa) was 849.02 ± 0.82 kg/m3, the mass density (15100 kPa) was 849.3 ± 0.82 kg/m3 and the mass density (15125 kPa) was 849.56 ± 0.82 kg/m3. For the same compound, the mass density (15150 kPa) was 849.76 ± 0.82 kg/m3, the mass density (15175 kPa) was 850.04 ± 0.82 kg/m3 and the mass density (15200 kPa) was 850.3 ± 0.82 kg/m3. For the same compound, the mass density (15225 kPa) was 850.56 ± 0.82 kg/m3, the mass density (15250 kPa) was 850.76 ± 0.82 kg/m3 and the mass density (15275 kPa) was 851.04 ± 0.82 kg/m3. It also gave a mass density (15300 kPa) of 851.23 ± 0.82 kg/m3, a mass density (15325 kPa) of 851.51 ± 0.82 kg/m3 and a mass density (15350 kPa) of 851.79 ± 0.82 kg/m3. It also gave a mass density (15375 kPa) of 851.98 ± 0.82 kg/m3, a mass density (15400 kPa) of 852.22 ± 0.82 kg/m3 and a mass density (15425 kPa) of 852.43 ± 0.82 kg/m3. The mass density (15450 kPa) was 852.7 ± 0.82 kg/m3, the mass density (15475 kPa) was 852.92 ± 0.82 kg/m3 and the mass density (15500 kPa) was 853.2 ± 0.82 kg/m3. It also gave a mass density (15525 kPa) of 853.4 ± 0.82 kg/m3, a mass density (15550 kPa) of 853.64 ± 0.82 kg/m3 and a mass density (15575 kPa) of 853.89 ± 0.82 kg/m3. The mass density (15600 kPa) was 854.15 ± 0.82 kg/m3, the mass density (15625 kPa) was 854.39 ± 0.82 kg/m3 and the mass density (15650 kPa) was 854.57 ± 0.82 kg/m3. It also gave a mass density (15675 kPa) of 854.81 ± 0.82 kg/m3, a mass density (15700 kPa) of 855.06 ± 0.82 kg/m3 and a mass density (15725 kPa) of 855.3 ± 0.82 kg/m3. For the same compound, the mass density (15750 kPa) was 855.49 ± 0.82 kg/m3, the mass density (15775 kPa) was 855.71 ± 0.82 kg/m3 and the mass density (15800 kPa) was 855.96 ± 0.82 kg/m3. It also gave a mass density (15825 kPa) of 856.2 ± 0.82 kg/m3, a mass density (15850 kPa) of 856.41 ± 0.82 kg/m3 and a mass density (15875 kPa) of 856.68 ± 0.82 kg/m3. For the same compound, the mass density (15900 kPa) was 856.93 ± 0.82 kg/m3, the mass density (15925 kPa) was 857.08 ± 0.82 kg/m3 and the mass density (15950 kPa) was 857.32 ± 0.82 kg/m3. It also gave a mass density (15975 kPa) of 857.56 ± 0.82 kg/m3, a mass density (16000 kPa) of 857.77 ± 0.82 kg/m3 and a mass density (16025 kPa) of 857.95 ± 0.82 kg/m3. It also gave a mass density (16050 kPa) of 858.19 ± 0.82 kg/m3, a mass density (16075 kPa) of 858.44 ± 0.82 kg/m3 and a mass density (16100 kPa) of 858.66 ± 0.82 kg/m3. For the same compound, the mass density (16125 kPa) was 858.84 ± 0.82 kg/m3, the mass density (16150 kPa) was 859.07 ± 0.82 kg/m3 and the mass density (16175 kPa) was 859.32 ± 0.82 kg/m3. The mass density (16200 kPa) was 859.52 ± 0.82 kg/m3, the mass density (16225 kPa) was 859.74 ± 0.82 kg/m3 and the mass density (16250 kPa) was 859.97 ± 0.82 kg/m3. It also gave a mass density (16275 kPa) of 860.2 ± 0.82 kg/m3, a mass density (16300 kPa) of 860.35 ± 0.82 kg/m3 and a mass density (16325 kPa) of 860.63 ± 0.82 kg/m3. The mass density (16350 kPa) was 860.83 ± 0.82 kg/m3, the mass density (16375 kPa) was 861.01 ± 0.82 kg/m3 and the mass density (16400 kPa) was 861.22 ± 0.82 kg/m3. For the same compound, the mass density (16425 kPa) was 861.43 ± 0.82 kg/m3, the mass density (16450 kPa) was 861.65 ± 0.82 kg/m3 and the mass density (16475 kPa) was 861.85 ± 0.82 kg/m3. For the same compound, the mass density (16500 kPa) was 862.01 ± 0.82 kg/m3, the mass density (16525 kPa) was 862.21 ± 0.82 kg/m3 and the mass density (16550 kPa) was 862.42 ± 0.82 kg/m3. For the same compound, the mass density (16575 kPa) was 862.62 ± 0.82 kg/m3, the mass density (16600 kPa) was 862.9 ± 0.82 kg/m3 and the mass density (16625 kPa) was 863.08 ± 0.82 kg/m3. It also gave a mass density (16650 kPa) of 863.26 ± 0.82 kg/m3 and a mass density (16675 kPa) of 863.56 ± 0.82 kg/m3.

From the NIST ThermoML archive (doi:10.1016/j.jct.2016.03.026)
